Measurements from patent US8143290B2, “Chemical compounds 572” (AstraZeneca AB, priority 2006, dated 2012).

Target: T1, recombinant human GR (Homo sapiens, UniProt P04150)
T1 construct: purchased Panvera/Invitrogen P2812 (kit P2893)
T1 sequence (P04150 1-777): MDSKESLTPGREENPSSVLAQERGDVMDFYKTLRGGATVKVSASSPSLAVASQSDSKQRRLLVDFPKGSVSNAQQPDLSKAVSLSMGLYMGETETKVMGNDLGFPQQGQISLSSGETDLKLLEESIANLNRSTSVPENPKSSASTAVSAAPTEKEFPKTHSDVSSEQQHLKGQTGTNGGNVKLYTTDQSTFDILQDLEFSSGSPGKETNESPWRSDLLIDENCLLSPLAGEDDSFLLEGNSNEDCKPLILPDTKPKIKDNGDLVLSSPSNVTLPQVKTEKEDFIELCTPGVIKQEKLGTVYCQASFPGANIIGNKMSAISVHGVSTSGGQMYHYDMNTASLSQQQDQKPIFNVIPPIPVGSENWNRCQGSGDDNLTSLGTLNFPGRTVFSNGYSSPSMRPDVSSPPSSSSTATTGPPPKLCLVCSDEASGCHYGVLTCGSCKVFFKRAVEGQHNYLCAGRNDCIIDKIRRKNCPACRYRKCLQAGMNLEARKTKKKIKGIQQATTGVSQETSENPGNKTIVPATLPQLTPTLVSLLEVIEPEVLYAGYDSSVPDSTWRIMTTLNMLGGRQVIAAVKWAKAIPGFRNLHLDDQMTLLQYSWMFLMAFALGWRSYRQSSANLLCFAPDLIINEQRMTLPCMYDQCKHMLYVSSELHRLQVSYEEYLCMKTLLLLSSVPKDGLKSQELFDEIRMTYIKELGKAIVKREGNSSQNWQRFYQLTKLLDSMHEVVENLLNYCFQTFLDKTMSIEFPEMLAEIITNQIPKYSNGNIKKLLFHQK
Assay: Human Glucocorticoid Receptor (GR) Assay, fluorescence polarization
Assay type: binding
Conditions: GS Red tracer, incubated 2 h at r.t., XLfit model 205, read-out: GRhuFL_FP_v2 Mean IC50
Outline: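 After 2 h dark incubation at r.t., polarization reported displacement of the GS Red tracer from recombinant GR, in buffer with phosphate, molybdate, EDTA, DTT and Stabilizing Peptide. Controls: dexamethasone (100%) and DMSO (0%).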

Row | SMILES | IC50 [nM]
1 | C[C@H](NC(=O)CO)[C@H](Oc1ccc2c(cnn2-c2ccc(F)cc2)c1)c1ccc2c(c1)OCCO2 [Example 123, N-((1R,2S)-1-(2,3-dihydrobenzo[b][1,4]dioxin-6-yl)-1-(1-(4-fluorophenyl)-1H-indazol-5-yloxy)propan-2-yl)-2-hydroxyacetamide] | 4.2
2 | C[C@H](NC(=O)C1(C)CC1)[C@H](Oc1ccc2c(cnn2-c2ccc(F)cc2)c1)c1ccc2c(c1)OCCO2 [Example 124, N-((1R,2S)-1-(2,3-dihydrobenzo[b][1,4]dioxin-6-yl)-1-(1-(4-fluorophenyl)-1H-indazol-5-yloxy)propan-2-yl)-1-methylcyclopropanecarboxamide] | 2.7
3 | C[C@H](NC(=O)[C@@H]1CCCN1)[C@H](Oc1ccc2c(cnn2-c2ccc(F)cc2)c1)c1ccc2c(c1)OCCO2 [Example 125, (S)-N-((1R,2S)-1-(2,3-dihydrobenzo[b][1,4]dioxin-6-yl)-1-(1-(4-fluorophenyl)-1H-indazol-5-yloxy)propan-2-yl)pyrrolidine-2-carboxamide] | 6.4
4 | COc1cccc([C@@H](Oc2ccc3c(cnn3-c3ccc(Cl)cc3)c2)[C@H](C)NC(=O)C(F)(F)F)c1 [Example 126, N-((1R,2S)-1-(1-(4-chlorophenyl)-1H-indazol-5-yloxy)-1-(3-methoxyphenyl)propan-2-yl)-2,2,2-trifluoroacetamide] | 2.9
5 | COc1cccc([C@@H](Oc2ccc3c(cnn3-c3ccc(Cl)cc3)c2)[C@H](C)NC(=O)C(C)(F)F)c1 [Example 128, N-((1R,2S)-1-(1-(4-chlorophenyl)-1H-indazol-5-yloxy)-1-(3-methoxyphenyl)propan-2-yl)-2,2-difluoropropanamide] | 3.9
6 | CC(C)n1ncc2cc(O[C@H](c3ccccc3)[C@H](C)NC(=O)C(F)(F)F)ccc21 [Example 129, 2,2,2-Trifluoro-N-[(1R,2S)-1-phenyl-1-(1-propan-2-ylindazol-5-yl)oxy-propan-2-yl]acetamide] | 11
7 | C[C@H](NC(=O)C(F)(F)F)[C@H](Oc1ccc2c(cnn2C2CCCC2)c1)c1ccccc1 [Example 130, N-[(1R,2S)-1-(1-cyclopentylindazol-5-yl)oxy-1-phenyl-propan-2-yl]-2,2,2-trifluoro-acetamide] | 2.5
8 | COc1cccc([C@@H](Oc2ccc3c(cnn3-c3ccc(F)cc3)c2)[C@H](C)NC(=O)c2ccc(C)s2)c1 [Example 131, N-[(1R,2S)-1-[1-(4-fluorophenyl)indazol-5-yl]oxy-1-(3-methoxyphenyl)propan-2-yl]-5-methyl-thiophene-2-carboxamide] | 4
9 | COc1cccc([C@@H](Oc2ccc3c(cnn3-c3ccc(F)cc3)c2)[C@H](C)NC(=O)c2sccc2C)c1 [Example 132, N-[(1R,2S)-1-[1-(4-fluorophenyl)indazol-5-yl]oxy-1-(3-methoxyphenyl)propan-2-yl]-3-methyl-thiophene-2-carboxamide] | 4.1
10 | COc1cccc([C@@H](Oc2ccc3c(cnn3-c3ccc(F)cc3)c2)[C@H](C)NC(=O)c2cccn2C)c1 [Example 133, N-[(1R,2S)-1-[1-(4-fluorophenyl)indazol-5-yl]oxy-1-(3-methoxyphenyl)propan-2-yl]-1-methyl-pyrrole-2-carboxamide] | 3.3
11 | COc1cccc([C@@H](Oc2ccc3c(cnn3-c3ccc(F)cc3)c2)[C@H](C)NC(=O)c2ccsc2)c1 [Example 134, N-[(1R,2S)-1-[1-(4-fluorophenyl)indazol-5-yl]oxy-1-(3-methoxyphenyl)propan-2-yl]thiophene-3-carboxamide] | 3.6
12 | COc1cccc([C@@H](Oc2ccc3c(cnn3-c3ccc(F)cc3)c2)[C@H](C)NC(=O)c2nccs2)c1 [Example 135, N-[(1R,2S)-1-[1-(4-fluorophenyl)indazol-5-yl]oxy-1-(3-methoxyphenyl)propan-2-yl]1,3-thiazole-2-carboxamide] | 3.1
13 | COc1cccc([C@@H](Oc2ccc3c(cnn3-c3ccc(F)cc3)c2)[C@H](C)NC(=O)c2cc(C)on2)c1 [Example 136, N-[(1R,2S)-1-[1-(4-fluorophenyl)indazol-5-yl]oxy-1-(3-methoxyphenyl)propan-2-yl]-5-methyl-1,2-oxazole-3-carboxamide] | 3
14 | CC(C)C(=O)NC(=O)C(Oc1ccc2c(cnn2-c2ccc(F)cc2)c1)c1ccccc1 (stereo not drawn) [Example 137, N-[2-[1-(4-fluorophenyl)indazol-5-yl]oxy-2-phenyl-acetyl]-2-methyl-propanamide] | 360
15 | C[C@H](NC(=O)C1(O)CC1)[C@H](Oc1ccc2c(cnn2-c2ccc(F)cc2)c1)c1ccc(C(F)(F)F)cc1 [Example 139, N-[(1R,2S)-1-[1-(4-fluorophenyl)indazol-5-yl]oxy-1-[4-(trifluoromethyl)phenyl]propan-2-yl]-1-hydroxy-cyclopropane-1-carboxamide] | 4.1
16 | C[C@H](NC(=O)C(F)(F)F)[C@H](Oc1ccc2c(cnn2-c2ccc(CO)cc2)c1)c1ccccc1 [Example 141, 2,2,2-trifluoro-N-((1R,2S)-1-(1-(4-(hydroxymethyl)phenyl)-1H-indazol-5-yloxy)-1-phenylpropan-2-yl)acetamide] | 3.3
17 | C[C@H](NC(=O)C(F)(F)F)[C@H](Oc1ccc2c(cnn2-c2ccc(CN3CCOCC3)cc2)c1)c1ccccc1 [Example 142, 2,2,2-trifluoro-N-((1R,2S)-1-(1-(4-(morpholinomethyl)phenyl)-1H-indazol-5-yloxy)-1-phenylpropan-2-yl)acetamide] | 5.6
18 | C[C@H](NC(=O)C(F)(F)F)[C@H](Oc1ccc2c(cnn2-c2ccc(CN(C)C)cc2)c1)c1ccccc1 [Example 143, N-((1R,2S)-1-(1-(4-((dimethylamino)methyl)phenyl)-1H-indazol-5-yloxy)-1-phenylpropan-2-yl)-2,2,2-trifluoroacetamide] | 23
19 | C[C@H](NC(=O)C(F)(F)F)[C@H](Oc1ccc2c(cnn2-c2cccc(CO)c2)c1)c1ccccc1 [Example 144, 2,2,2-trifluoro-N-((1R,2S)-1-(1-(3-(hydroxymethyl)phenyl)-1H-indazol-5-yloxy)-1-phenylpropan-2-yl)acetamide] | 3
20 | C[C@H](NC(=O)C(F)(F)F)[C@H](Oc1ccc2c(cnn2-c2cccc(CN3CCOCC3)c2)c1)c1ccccc1 [Example 145, 2,2,2-trifluoro-N-((1R,2S)-1-(1-(3-(morpholinomethyl)phenyl)-1H-indazol-5-yloxy)-1-phenylpropan-2-yl)acetamide] | 5.5
21 | C[C@H](NC(=O)C(F)(F)F)[C@H](Oc1ccc2c(cnn2-c2cccc(CN(C)C)c2)c1)c1ccccc1 [Example 146, N-((1R,2S)-1-(1-(3-((dimethylamino)methyl)phenyl)-1H-indazol-5-yloxy)-1-phenylpropan-2-yl)-2,2,2-trifluoroacetamide] | 78
22 | Cc1ccc([C@@H](Oc2ccc3c(cnn3-c3ccc(F)cc3)c2)[C@H](C)NC(=O)C(F)(F)F)cc1C [Example 149, N-[(1R,2S)-1-(3,4-dimethylphenyl)-1-[1-(4-fluorophenyl)indazol-5-yl]oxy-propan-2-yl]-2,2,2-trifluoro-acetamide] | 5.5
23 | C[C@H](NC(=O)C(F)(F)F)[C@H](Oc1ccc2c(cnn2-c2ccc(F)cc2)c1)c1ccc(F)c(F)c1 [Example 150, N-[(1R,2S)-1-(3,4-difluorophenyl)-1-[1-(4-fluorophenyl)indazol-5-yl]oxy-propan-2-yl]-2,2,2-trifluoro-acetamide] | 4.6
24 | Cc1ccc([C@@H](Oc2ccc3c(cnn3-c3ccc(F)cc3)c2)[C@H](C)NC(=O)C(F)(F)F)cc1F [Example 151, 2,2,2-trifluoro-N-[(1R,2S)-1-(3-fluoro-4-methyl-phenyl)-1-[1-(4-fluorophenyl)indazol-5-yl]oxy-propan-2-yl]acetamide] | 32
25 | C[C@H](NC(=O)C(F)(F)F)[C@H](Oc1ccc2c(cnn2-c2ccc(F)cc2)c1)c1cccc(F)c1 [Example 152, 2,2,2-trifluoro-N-[(1R,2S)-1-(3-fluorophenyl)-1-[1-(4-fluorophenyl)indazol-5-yl]oxy-propan-2-yl]acetamide] | 3.6
26 | Cc1ccc(C)c([C@@H](Oc2ccc3c(cnn3-c3ccc(F)cc3)c2)[C@H](C)NC(=O)C(F)(F)F)c1 [Example 153, N-[(1R,2S)-1-(2,5-dimethylphenyl)-1-[1-(4-fluorophenyl)indazol-5-yl]oxy-propan-2-yl]-2,2,2-trifluoro-acetamide] | 3.6
27 | Cc1ccc([C@@H](Oc2ccc3c(cnn3-c3ccc(F)cc3)c2)[C@H](C)NC(=O)C(F)(F)F)c(C)c1 [Example 154, N-[(1R,2S)-1-(2,4-dimethylphenyl)-1-[1-(4-fluorophenyl)indazol-5-yl]oxy-propan-2-yl]-2,2,2-trifluoro-acetamide] | 4.7
